Reference: ChEMBL document CHEMBL1156829 (Proc Natl Acad Sci U S A, 2008)
Several values for one entry are separate records, joined by “and”; a condition that tells them apart may be missing. Identical values can stand only once.

Tests used:
Plasmodium falciparum [1] = test: NOVARTIS: Inhibition of Plasmodium falciparum W2 (drug-resistant) proliferation in erythrocyte-based infection assay; format: functional, organism-based; conditions: read-out: EC50
Plasmodium falciparum [2] = test: NOVARTIS: Inhibition of Plasmodium falciparum 3D7 (drug-susceptible) proliferation in erythrocyte-based infection assay; format: functional, organism-based
[3] = NOVARTIS: Cytotoxicity against human hepatocellular carcinoma cell line (Huh7); format: toxicity, cell-based, Huh-7; conditions: Huh7 cells (hepatocellular carcinoma cell line)

SMILES	EC50 (Plasmodium falciparum [1]; Plasmodium falciparum, W2) [nM]	EC50 (Plasmodium falciparum [2]; Plasmodium falciparum, 3D7) [nM]	CC50 [3] [nM]	EC50 (Plasmodium falciparum [1])	EC50 (Plasmodium falciparum [2])
C=C[C@H]1C[N@]2CC[C@H]1C[C@H]2[C@H](O)c1ccnc2ccc(OC)cc12	793	518			
CN[C@@H]1CC2O[C@@](C)([C@@H]1OC)n1c3ccccc3c3c4c(c5c6ccccc6n2c5c31)C(=O)NC4			355		
CCc1nc(N)nc(N)c1-c1ccccc1	> 1250	1550			
CN(C)c1ccc(/C=C2/SC(=Nc3ccccc3Cl)NC2=O)cc1		> 1250		> 512 nM and 1410 nM	713 nM
Cc1ccc(Nc2nc(-c3ccccn3)cs2)cc1	368	407			
COc1cccc(NC(=O)C2C3C=CC4(O3)C2C(=O)N(CC2COc3ccccc3O2)C4C(=O)NC2CCCCC2)c1 (stereo not given)	> 53.7	> 1250			
CCOC(=O)CC(C)(O)P(=O)(OC)OC (stereo not given)	> 1250	> 1010			
CCCCNc1nc(NC(C)(C)C)nc(NC(C)(C)C)n1	804	2160			
CNc1nc(NN=Cc2cc([N+](=O)[O-])ccc2O)nc(Nc2cccc(C(F)(F)F)c2)n1	> 1660	1860			
CN(C=Cc1sc2ccc3ccccc3c2[n+]1C)c1ccccc1				909 nM	553 nM
O=[N+]([O-])c1ccc(C2OC3C(c4ccc(Cl)cc4)=Nc4ccccc4N3C2c2ccc([N+](=O)[O-])cc2)cc1 (stereo not given)	709	> 1250			
O=C(CCCn1c2ccccc2c(=O)c2ccccc21)NCc1ccc(F)cc1	1100	1110			
COc1ccc(C2C(C(=O)c3ccc(C)cc3)=C(O)C(=O)N2CCN2CCOCC2)c(OC)c1 (stereo not given)	> 1250	> 50			
Cc1c(Br)c([N+](=O)[O-])nn1CC(=O)NC(C)c1ccccc1 (stereo not given)	> 948	> 1250			
CCC(C)NC(=O)c1nn(-c2ccc(Cl)cc2)c(=O)c2ccccc12 (stereo not given)	696	285			
Cc1cc2cc3c(cc2c(C)n1)c1ccccc1n3C	1100	1260			
CN(C)c1ccc(/C=C2\SC(=N)N(c3nccs3)C2=O)cc1	307	223			
CC(=O)N1CCc2cc(Br)cc(S(=O)(=O)N(CC(C)C)CC(C)C)c21	270	1220			
CCN1C=Cc2ccccc2/C1=C\c1ccc2ccccc2[n+]1CC	294	670			
CCCCN(CCCC)c1nc(=O)cc(-c2ccc(Cl)cc2)o1	636	810			
CCCCOc1ccc(/C=C(/C#N)c2nc(-c3ccc(-c4ccccc4)cc3)cs2)cc1	> 774	> 1250			
Oc1ccccc1CNC(Cc1ccccc1)C(O)(c1ccccc1)c1ccccc1 (stereo not given)	27.6	203			
O=C(Cn1ccc(=NCc2ccccc2)cc1)c1cccc(Br)c1	> 110	> 1390			

SMILES	EC50 (Plasmodium falciparum [1]; Plasmodium falciparum, W2) [nM]	EC50 (Plasmodium falciparum [2]; Plasmodium falciparum, 3D7) [nM]	CC50 [3] [nM]	EC50 (Plasmodium falciparum [1])	EC50 (Plasmodium falciparum [2])
CCCOC(=O)c1c(NC(=O)c2c(I)cnn2C)sc2c1CCCCC2	> 1250	1240			
CC(C)CC[n+]1ccccc1C=Cc1ccc(N(C)C)cc1				548 nM	747 nM
O=C(NC(=S)Nc1ccc(-c2nc3ccccc3s2)cc1)c1ccc(S(=O)(=O)N2CCCC2)cc1	> 1590	2050			
O=C1/C(=C/c2ccccc2)SC(=Nc2ccccc2)N1C1CCCCC1	> 1250	1200			
CCC(=O)Nc1ccc(C(=O)NN=Cc2cc([N+](=O)[O-])ccc2O)cc1	1540	> 1250			
CC12C(=O)N(c3cccc(C(=O)O)c3)C(=O)C1C1c3ccccc3C2c2ccccc21 (stereo not given)	> 1250	> 652			
COc1ccc(/C=C2\SC(=S)N(CC(=O)NNC(=O)c3ccncc3)C2=O)cc1	2280	> 1520			
CCN1/C(=C/c2sc3ccc(-c4ccccc4)cc3[n+]2CCO)C=Cc2cc(OC)ccc21	945	487			
CC[n+]1ccc(C=Cc2ccc(N(C)C)cc2)cc1		681		724 nM	
N#Cc1c2c(c(N3CCN(C(c4ccccc4)c4ccccc4)CC3)n3c1nc1ccccc13)CCC2	2270	> 1250			
O=C(/C=C/c1ccccc1)Nc1ccc(C(=O)OC[C@@H]2CCCN3CCCC[C@H]23)cc1	> 1250	1440			
Cc1ccc(N=C(Nc2ccc(C)cc2)Nc2ccccc2O)cc1	231	1530			
COc1ccc(-c2csc(NC(=O)COc3ccccc3Cl)n2)cc1Br	286	1640			
COc1ccc(-c2cc(C(F)(F)F)n3ncc(C(=O)NCc4ccccc4)c3n2)cc1	1540	> 1250			
CC[n+]1cc(C)ccc1C=Cc1ccc(N(C)C)cc1	386				521 nM
CCOC(=O)c1c(-c2ccc3c(c2)OCO3)[nH]c2cc(OC)ccc2c1=O	180	127			
CCCCOc1cccc(NC(=O)CSC2=C(C#N)C(c3ccccc3)C(C(=O)Nc3ccccc3)=C(C)N2)c1 (stereo not given)	479	507			
C=CC1CN2CCC1CC2[C@@H](OC(=O)c1cc([N+](=O)[O-])cc([N+](=O)[O-])c1)c1ccnc2ccc(OC)cc12 (stereo not given in full)	1610	1300			
O=C(Nc1cccc(-c2csc(-c3ccccc3)n2)c1)c1cccs1	672	1240			
Cc1ccnc(Nc2nc(-c3ccccn3)cs2)c1	46.3	113			
CN1/C(=C/C=C/c2oc3ccccc3[n+]2C)Oc2ccccc21		161			182 nM
Cc1ccc(C=Cc2ccc(N(C)C)cc2)[n+](C)c1				914 nM	1160 nM
COc1cc2c(cc1OC)C1=NNC(=O)C1=NC(C)(C)C2	793	> 1580			

SMILES	EC50 (Plasmodium falciparum [1]; Plasmodium falciparum, W2) [nM]	EC50 (Plasmodium falciparum [2]; Plasmodium falciparum, 3D7) [nM]	CC50 [3] [nM]	EC50 (Plasmodium falciparum [1])	EC50 (Plasmodium falciparum [2])
CCOC(=O)C1=C(C)NC(=Cc2cc(C)n(-c3ccccc3C(F)(F)F)c2C)C1=O	11.7	13.8			
CN1/C(=C\C=C\C2=[N+](C)c3ccc4ccccc4c3C2(C)C)C(C)(C)c2ccccc21	1020	1640			
O=C1C(N2CCCCC2)=C(N2CCOCC2)C(=O)c2ccccc21	> 1460	1240			
CCN1/C(=C\c2sc3ccc(O)cc3[n+]2CC)C=Cc2ccccc21	701	582			
Oc1ccc(C(CCNCCc2c[nH]c3ccccc23)c2ccccc2)cc1 (stereo not given)	474	> 997			
CCOC(=O)C1=C(C)N/C(=C/c2cc(C)n(-c3ccccc3C(F)(F)F)c2C)C1=O	628	471			
CC(C)CN1C(=O)c2ccccc2C(C(=O)NC2CCCCC2)C1c1cccs1 (stereo not given)			> 100000		
COc1ccc2ccccc2c1C1NC(SCc2ccc(F)cc2)=NC(C)=C1C(C)=O (stereo not given)	702	> 1610			
O=C1CCC(=O)N1c1ccc(CSc2nc3ccccc3[nH]2)cc1	> 1250	> 281			
CCCOc1ccc(C(=O)C2=C(O)C(=O)N(CCN3CCOCC3)C2c2ccc(F)cc2)c(C)c1 (stereo not given)	> 896	> 1250			
CN(C)c1ccc(/C=C2\N=C(c3ccccc3F)OC2=O)cc1	> 1210	> 1250			
Cc1ccc(NC(=O)c2cc3ccccc3oc2=O)nc1	> 1250	> 1080			
Cc1cccc(NC(c2cccc(F)c2)c2ccc3cccnc3c2O)n1 (stereo not given)	880	1710			
COc1ccc(-c2nc(-c3ccc(-c4[nH]c(-c5ccc(OC)cc5)nc4-c4ccccc4)cc3)c(-c3ccccc3)[nH]2)cc1	> 1250	1290			
COc1cnc(-c2ccccn2)nc1N1CCCC1	648	489			
COc1cc(C=NNc2nc3ccccc3[nH]2)cc(Br)c1O	> 1250	1420			
CC1=NN(c2ccccc2)C(=O)C1=NNc1c(Br)cc(Br)cc1Br	> 1050	> 1250			
CCOC(=O)c1c(-c2ccc3c(c2)OCO3)[nH]c2cccc(OC)c2c1=O			> 10000		
N#CCSc1nc2c(sc(=S)n2-c2ccccc2)c(=O)n1Cc1ccco1	715	> 1350			
COc1ccc(OC)c(C=NNC(=O)Cc2cc(O)n[nH]2)c1	1940	> 1250			
CCN(CC)c1ccc(/C=C/c2ccc3ccc(OC)cc3[n+]2CC)cc1					38.4 nM and 248 nM
Cc1ccc(NC(=O)C2C3C=CC4(O3)C2C(=O)N(CCCN2CCOCC2)C4C(=O)NC2CCCC(C)C2C)cc1Cl (stereo not given)	> 117	> 1630			
CC1(C)Cc2nc3ccccc3c(NCc3ccc(Cl)cc3)c2C(O)C1 (stereo not given)	2110	> 1250			
